Results from patent US6977270B2, “Tocotrienolquinone cyclization product with an anti-hypercholesterol effect” (BASF Aktiengesellschaft, priority 2000, dated 2005).

System: Cholesterol Synthesis in HepG2 Cells
Experiment: Determination of cholesterol synthesis in HepG2 cells (14C-acetate incorporation into the non-saponifiable lipid/sterol fraction)
Type: cell-based
Conditions: mean of three
Description: Determination of Cholesterol Synthesis in HepG2 Cells (cf. Fahrner, J. et al., Eur. J. Biochem. 213: 1067-1073 (1993); Gebhardt, R., Lipids 28: 613-619 (1993); Pill, J. et al., Z. Anal. Chem. 332: 512-513 (1985)
To detect an effect on cholesterol biosynthesis by test substances, HepG2 cell cultures were used. These cells were cultured up to confluence in 35 mm 6-well cell culture incubation dishes in DMEM medium (Gibco, Eggenstein, Germany) with 2 mM gentamin, 10% fetal calf serum, 40 U/ml of streptomycin and 50 U/ml of penicillin. Frozen cells were cultured and passaged for one week before use. The confluent cells were then incubated in serum-free Williams Medium E for 4 hours at 37° C. with the test substances. ^14C-Acetate (18.5 kBq/ml; 0.5 μCi/ml) was then added to the solutions. The test substances were diluted in DMSO and used at the concentrations specified. […]
Incorporation of ^14C-acetate into the non-saponifiable lipid fraction (sterol fraction) was determined by the following method: 1.4 ml of homogenates were incubated with 2.8 ml of 0.5 M KOH in EtOH with shaking for 1 hour at 70° C. […] The ^14C activity in the samples was determined, after addition of 10 ml of scintillation solution (Ultima Gold®, Packard, Merident, Conn.) in a scintillation counter. The measured values shown are to be understood as means of three independent culture dishes per test solution. […]

SMILES: CC(C)=CCC/C(C)=C/CC/C(C)=C/CC[C@]1(C)CCc2cc(O)c(C)c(C)c2O1 [R-γ-Tocotrienol]
- inhibition of 14C-acetate incorporation (concentration 5×10^−6 M, relative to DMSO control (100%)): approximately 20%
- maximum significant inhibition of 14C-acetate incorporation (concentrations ≧5×10^−5 M, relative to DMSO control): approximately 50%
